Consider 13 compounds from PubChem BioAssay (NCI).

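Where inhibition never reached the appropriate level, the endpoint shown equals the highest concentration tested. Otherwise, values were interpolated linearly from a five-concentration, 48-hour dose response in 96-well plates. TGI is the concentration that stops growth completely.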

Some test systems named below: CCRF-CEM leukemia; DU-145 prostate; MCF7 breast; MDA-MB-435; NCI-H522 lung; OVCAR-5 ovarian; RXF 393 renal; SK-MEL-2 melanoma; SNB-75 CNS; TK-10 renal.
Common to all, as to assay: NCI anticancer screen, dose series, 48 h

As to `O=S(=O)(O)C(=Nc1cccc(Cc2ccccc2)c1)Nc1cccc(Cc2ccccc2)c1`, the TGI in the test on CCRF-CEM leukemia stood at 98 µM; in the test with DU-145 prostate, 35.4 µM; in the test on MCF7 breast, 37.9 µM; in the test with MDA-MB-435, 40.6 µM; in the test with NCI-H522 lung, 29.4 µM; in the test with OVCAR-5 ovarian, 33.7 µM. In addition, the TGI in the test on RXF 393 renal was 33.3 µM; in the test with SK-MEL-2 melanoma, 44.6 µM; with SNB-75 CNS, 30.6 µM; with TK-10 renal, 35.6 µM.
Consider `CCCCc1ccc(Nc2nc(SC)c3[nH]cnc3n2)cc1`, for which the TGI was 12.3 µM in the test on CCRF-CEM leukemia; more than 100 µM in the test with DU-145 prostate; more than 100 µM with MCF7 breast; more than 100 µM with MDA-MB-435; more than 100 µM with NCI-H522 lung; more than 100 µM with OVCAR-5 ovarian. Also, the TGI in the test on RXF 393 renal, in the test with SK-MEL-2 melanoma, in the test on SNB-75 CNS and in the test on TK-10 renal was more than 100 µM throughout.
Consider `CC[C@]1(Cc2ccc(OC)c(OC)c2)C=[N+]([O-])O[C@H](OC2CCCC2(c2ccccc2)c2ccccc2)[C@@H]1OC(C)=O` (stereo not given in full), for which the TGI with CCRF-CEM leukemia was more than 100 µM; in the test with DU-145 prostate, 13.1 µM; in the test on MCF7 breast, 8 µM; with MDA-MB-435 it was 7 µM; in the test with NCI-H522 lung, 9.77 µM; with OVCAR-5 ovarian, 44.2 µM. The TGI in the test on RXF 393 renal worked out at 4.35 µM; with SK-MEL-2 melanoma it was 14.7 µM; in the test with SNB-75 CNS it was 9.62 µM; with TK-10 renal, 10.8 µM.
As to `N#CC(=C1CCN(CCCC(=O)c2ccc(F)cc2)CC1)c1ccccc1`, the TGI was more than 100 µM in the test with CCRF-CEM leukemia; more than 100 µM with DU-145 prostate; more than 100 µM with MCF7 breast; more than 100 µM in the test with MDA-MB-435; 95.2 µM in the test with NCI-H522 lung; more than 100 µM in the test on OVCAR-5 ovarian. Besides, the TGI in the test on RXF 393 renal, with SK-MEL-2 melanoma, with SNB-75 CNS and with TK-10 renal was more than 100 µM in each case.
As to `C=CCC1(OC(C)=O)C2OC(=O)C1(O)OCC2O` (stereo not given), the TGI in the test with CCRF-CEM leukemia, in the test on DU-145 prostate, in the test on MCF7 breast, with MDA-MB-435, with NCI-H522 lung and in the test on OVCAR-5 ovarian was more than 100 µM each time. In addition, the TGI in the test with RXF 393 renal was more than 100 µM; in the test on SK-MEL-2 melanoma it was more than 100 µM; in the test with SNB-75 CNS, 98.9 µM; in the test with TK-10 renal, more than 100 µM.
With `CC(C)=CCC/C(=C/CC/C(=C\CCc1ccoc1)C(=O)O)C(=O)O`, the TGI in the test with CCRF-CEM leukemia, with DU-145 prostate, with MCF7 breast, with MDA-MB-435, in the test on NCI-H522 lung and with OVCAR-5 ovarian was more than 100 µM throughout. Further, the TGI in the test with RXF 393 renal, in the test with SK-MEL-2 melanoma, with SNB-75 CNS and in the test on TK-10 renal was more than 100 µM throughout.
Take `Clc1cc(Cl)cc(C=NC23CC4CC(CC(C4)C2)C3)c1`: the TGI in the test on CCRF-CEM leukemia, in the test with DU-145 prostate, in the test on MCF7 breast, in the test on MDA-MB-435, in the test with NCI-H522 lung and in the test with OVCAR-5 ovarian was more than 10 µM each time. The TGI with RXF 393 renal, in the test with SK-MEL-2 melanoma, with SNB-75 CNS and with TK-10 renal was more than 10 µM each time.
Take `C[C@@H](c1ccccc1)N1CN(C(=O)OCc2ccccc2)C(C)(C)CC1=O`: the TGI with CCRF-CEM leukemia, in the test with DU-145 prostate, in the test with MCF7 breast, in the test with MDA-MB-435, in the test on NCI-H522 lung and in the test with OVCAR-5 ovarian was more than 100 µM each time. For the same compound, the TGI was 70.9 µM with RXF 393 renal, more than 100 µM with SK-MEL-2 melanoma, more than 100 µM with SNB-75 CNS and more than 100 µM with TK-10 renal.
Take `CN(C)CCNC(=O)c1cc([N+](=O)[O-])cc2c1Oc1ccccc1O2`: the TGI in the test on CCRF-CEM leukemia, in the test with DU-145 prostate, with MCF7 breast, in the test with MDA-MB-435, with NCI-H522 lung and in the test on OVCAR-5 ovarian was more than 100 µM each time. For the same compound, the TGI in the test with RXF 393 renal was 93.7 µM; with SK-MEL-2 melanoma, 56.3 µM; with SNB-75 CNS, 38.9 µM; in the test on TK-10 renal, more than 100 µM.
Consider `CCOC(=O)c1cn2c(n1)sc1c(Cl)c(Cl)ccc12`, for which the TGI in the test on CCRF-CEM leukemia was more than 100 µM; in the test on DU-145 prostate, more than 100 µM; with MCF7 breast, more than 100 µM; in the test with MDA-MB-435, 12.6 µM; in the test with NCI-H522 lung, 43.4 µM; in the test on OVCAR-5 ovarian, more than 100 µM. The TGI in the test on RXF 393 renal was more than 100 µM; in the test on SK-MEL-2 melanoma, more than 100 µM; with SNB-75 CNS, 73.1 µM; in the test with TK-10 renal, more than 79.4 µM.
Consider `COC(=O)c1sc(=S)sc1SCc1ccc(CSc2sc(=S)sc2C(=O)OC)cc1`, for which the TGI in the test with CCRF-CEM leukemia, in the test on DU-145 prostate, in the test on MCF7 breast, in the test with MDA-MB-435, with NCI-H522 lung and with OVCAR-5 ovarian was more than 100 µM in each case. Moreover, the TGI with RXF 393 renal, with SK-MEL-2 melanoma, in the test with SNB-75 CNS and in the test with TK-10 renal was more than 100 µM each time.
As to `CCn1c(SCC(=O)NNC(=S)Nc2ccc([N+](=O)[O-])cc2)nc2ccccc2c1=O`, the TGI in the test on CCRF-CEM leukemia, in the test with DU-145 prostate, with MCF7 breast, in the test with MDA-MB-435, in the test with NCI-H522 lung and in the test on OVCAR-5 ovarian was more than 100 µM each time. Also, the TGI in the test on RXF 393 renal, in the test on SK-MEL-2 melanoma, with SNB-75 CNS and in the test on TK-10 renal was more than 100 µM each time.
For the compound `Cc1cc(N(CCC#N)CCC#N)ccc1/C(N=Nc1ccc(C(=O)O)cc1)=N\NC(=O)c1cc(Cl)ccc1O`, the TGI in the test on CCRF-CEM leukemia is more than 100 µM; in the test on DU-145 prostate, more than 100 µM; in the test with MCF7 breast it was more than 100 µM; with MDA-MB-435 it was more than 100 µM; with NCI-H522 lung it was 35.9 µM; in the test with OVCAR-5 ovarian, more than 100 µM. Moreover, the TGI in the test with RXF 393 renal is 78.9 µM; in the test on SK-MEL-2 melanoma, more than 100 µM; in the test on SNB-75 CNS, 53.5 µM; in the test on TK-10 renal it was more than 100 µM.
